# Measurements as given in article PMC4506051, “Pharmacokinetic Profiles of Active Ingredients and Its Metabolites Derived from Rikkunshito, a Ghrelin Enhancer, in Healthy Japanese Volunteers: A Cross-Over, Randomized Study” (PLoS ONE, 2015).
# How the values were obtained:
# [1] = Method validation: stability in standard, stock and working solution; settings: IS 2000 ng/mL
# [2] = Exploratory trial: plasma concentration of rikkunshito ingredients after single oral rikkunshito 7.5 g; assay type: in vivo; settings: mean ± S.D., n = 4
# Method: A random sequence was generated using a computer. The safety endpoint was evaluated in all volunteers.
# (§1) In the first exploratory trial, 20-mL blood samples were collected from the cutaneous vein in the subjects’ forearm via a blood sampling tube that contained heparin at 0 (preadministration), 0.5, 1, 2, 4, and 8 h after a single oral administration of rikkunshito (Lot E24652). The dose of rikkunshito used in this trial was 7.5 g/day, which is the clinical daily dose, to widely explore rikkunshito-derived ingredients that enter the blood. Along with plasma, urine samples were collected at three points: between dinner and bedtime (preadministration), between 0 and 4 h after administration, and between 4 and 8 h after administration. The blood was immediately centrifuged at 1700 ×g for 10 min to obtain plasma. Plasma and urine fractions were stored at −80°C or lower until analysis.
# (§2) For quantification of synephrine, 5 µL of standard solution or methanol was added to 100 µL plasma or urine samples followed by mixing. Ten microliters of erythromycin [internal standard (IS)] solution was added to the solutions followed by mixing and centrifugation (20,400 ×g, 5 min, 4°C). The supernatants were loaded onto an Ostro 96-well plate (Waters) and centrifuged (1500 ×g, 3 min, 4°C) followed by injection into the LC–MS/MS.
# (§3) For quantification of 30 ingredients other than atractylodin and synephrine, 25 µL of standard solution or methanol was added to 500 µL plasma or urine samples followed by mixing. Atractylenolide III or digoxin (IS) solution (50 μL) was added to the solutions followed by mixing. For urine, 400 µL of blank plasma was added to the solutions. Ammonium acetate solution (100 mM, 100 or 400 µL) was added to the solutions followed by mixing. For enzymatic treatment, plasma and urine samples were incubated with β-glucuronidase (100 units in 100 mM ammonium acetate) for 2 h at 37°C. A solid-phase cartridge (OASIS HLB, 30 mg/1cc, Waters) was conditioned with methanol and 10 mM ammonium acetate solution, and the samples were loaded onto the cartridge. The cartridge was washed water : methanol (9:1, v/v), and 1.5 mL of methanol and 30 µL of propylene glycol were added to the cartridge to elute the analytes. The mixtures were dried at 25°C under a stream of nitrogen gas. Furthermore, 100 μL of 10 mM ammonium acetate : methanol (8:2, v/v) was added to the dried samples followed by mixing and sonication. The solutions were filtered (0.22 µm) and followed by injection into the LC–MS/MS system. […] Those analytical conditions are summarized in S2 Table and S3 Table.
# [3] = Exploratory trial: amount of rikkunshito ingredients in urine; assay type: in vivo, human
# Method: as §1, §2, §3
# [4] = Stability of ingredients in gastric pH solution (pH 1.2, 37°C); assay type: physicochemical
# Method: Rikkunshito gradually dissolved in acidic solution (pH 1.2) at 37°C, and the concentration of atractylodin after adding 0.25, 0.5, 1, and 2 h was measured by gas chromatography–mass spectrometry.
# [5] = Exploratory trial: ingredients in β-glucuronidase (enzyme)-treated urine; assay type: in vivo, human
# Method: as §1, §3
# [6] = 0–4 h after single oral rikkunshito 7.5 g, mean ± S.D., n = 4
# [7] = 4–8 h after single oral rikkunshito 7.5 g, mean ± S.D., n = 4
# [8] = preadministration (between dinner and bedtime), mean ± S.D., n = 4
# [9] = rikkunshito in acidic solution (pH 1.2) at 37°C, 0.5 h
# [10] = rikkunshito in acidic solution (pH 1.2) at 37°C, 1 h
# [11] = rikkunshito in acidic solution (pH 1.2) at 37°C, 2 h
# [12] = β-glucuronidase-treated, 0–4 h after rikkunshito 7.5 g, mean ± S.D., n = 4
# [13] = β-glucuronidase-treated, 4–8 h after rikkunshito 7.5 g, mean ± S.D., n = 4
# [14] = β-glucuronidase-treated, preadministration, mean ± S.D., n = 4
Structure (SMILES),"Amount in urine, 0–4 h [3, 6]","Amount in urine, 4–8 h [3, 7]","Amount in urine, Pre [3, 8]","Stability in gastric pH solution, Quantitative value [4, 9]","Stability in gastric pH solution, Quantitative value [4, 10]","Stability in gastric pH solution, Quantitative value [4, 11]",Increase of urine concentration after β-glucuronidase treatment compared with before treatment ([5]; rikkunshito 7.5 g),"Amount in enzyme-treated urine, 0–4 h [5, 12]","Amount in enzyme-treated urine, 4–8 h [5, 13]","Amount in enzyme-treated urine, Pre [5, 14]",other results
"C=C1CCC[C@]2(C)C[C@]3(O)OC(=O)C(C)=C3C[C@@H]12 [IS, Atractylenolide III, reference compound]",,,,,,,,,,,"Short-term stability of standard solution, RR ([1]; at room temperature for 24 h): IS: 100.0%; Long-term stability of standard solution, RR ([1]; refrigerator (0.5°C to 7.4°C) for 4 weeks): IS: 93.4%"
CNCC(O)c1ccc(O)cc1 (centres unmarked) [Synephrine],2150 ± 296 ng,798 ± 282 ng,24.2 ± 28.8 ng,3200 ng/mL,3180 ng/mL,2960 ng/mL,,,,,"Plasma concentration, 0 h ([2]; 0 h (preadministration), single oral rikkunshito 7.5 g): BQL; Plasma concentration, 0.5 h ([2]; 0.5 h after single oral rikkunshito 7.5 g): 0.029 ± 0.058 ng/mL; Plasma concentration, 1 h ([2]; 1 h after single oral rikkunshito 7.5 g): BQL; Plasma concentration, 2 h ([2]; 2 h after single oral rikkunshito 7.5 g): BQL; Plasma concentration, 4 h ([2]; 4 h after single oral rikkunshito 7.5 g): BQL; Plasma concentration, 8 h ([2]; 8 h after single oral rikkunshito 7.5 g): BQL"
"CCCCC[C@H](O)CC(=O)CCc1ccc(O)c(OC)c1 [[6]-Gingerol, [6]-Gingerol]",,,,,,,,,,,"Amount in urine, Pre ([3]; human, in vivo): 18.6 ± 26.2 ng; Amount in urine, 0–4 h ([3]; human, in vivo, po): 602 ± 552 ng; Amount in urine, 4–8 h ([3]; human, in vivo, po): 35.0 ± 57.1 ng; Amount in enzyme-treated urine, 0–4 h ([5]; human, in vivo): 8170 ± 5630 ng; Amount in enzyme-treated urine, 4–8 h ([5]; human, in vivo): 821 ± 654 ng; Amount in enzyme-treated urine, Pre ([5]; human, in vivo): 278 ± 261 ng; Increase of urine concentration after β-glucuronidase treatment compared with before treatment ([5]; human, in vivo): more than 10 fold; Stability in gastric pH solution, Quantitative value ([4]; 0.5 h, pH 1.2): 152 ng/mL; Stability in gastric pH solution, Quantitative value ([4]; 1 h, pH 1.2): 154 ng/mL; Stability in gastric pH solution, Quantitative value ([4]; 2 h, pH 1.2): 149 ng/mL"
"CCCCC/C=C/C(=O)CCc1ccc(O)c(OC)c1 [[6]-Shogaol, [6]-Shogaol]",459 ± 283 ng,15.4 ± 30.7 ng,16.3 ± 26.4 ng,17.9 ng/mL,18.5 ng/mL,17.9 ng/mL,more than 10 fold,4980 ± 1480 ng,392 ± 310 ng,109 ± 160 ng,
"CCCCCCC[C@H](O)CC(=O)CCc1ccc(O)c(OC)c1 [[8]-Gingerol, [8]-Gingerol]",8.97 ± 17.9 ng,BQL,BQL,,,,,49.5 ± 78.3 ng,BQL,2.73 ± 5.46 ng,
"CCCCCCC/C=C/C(=O)CCc1ccc(O)c(OC)c1 [[8]-Shogaol, [8]-Shogaol]",9.00 ± 18.0 ng,BQL,BQL,2.00 ng/mL,1.89 ng/mL,1.83 ng/mL,more than 10 fold,239 ± 62.5 ng,BQL,3.73 ± 7.46 ng,
